In brackets after ≈: the same amount, converted by molar mass.
Assays:
[1] = Solubility of meloxicam in PEG 200, PEG300 or PEG600; type: physicochemical; conditions: 25 °C, organic solvent or mixture, thermodynamic from solid, read-out: Solubility (shaking at 25° C. for 24 h)
[2] = Solubility of meloxicam in organic base or alkaline amino acid solutions (Comparative Example A4); type: physicochemical; conditions: for solubility at 24 h: 25 °C, shaking at 25° C. for 24 h, n = 3
[3] = cited from earlier work
[4] = Solubility study of meloxicam in injectable solution; type: physicochemical; conditions: aqueous with cosolvent or surfactant or cyclodextrin; PEG 400 300 mg/mL, pH 7.7-8.0 (NaOH/citric acid)
[5] = cited from earlier work; remark: listed apart in the source
physchem = conditions: 25 °C, water, thermodynamic from solid

solubility at 24 h ([1]; Cosolvent PEG200): 3.6 mg/mL (≈ 10.2 mM)
solubility at 24 h ([1]; Cosolvent PEG300): 2.81 mg/mL (≈ 8 mM)
solubility at 24 h ([1]; Cosolvent PEG600): 3.18 mg/mL (≈ 9.05 mM)
solubility at 24 h ([2]; Tris solution, aqueous buffer, thermodynamic from solid, Tris 5 mg/mL): 5.54 mg/mL (≈ 15.8 mM)
solubility at 24 h ([2]; Tris solution, aqueous buffer, thermodynamic from solid, Tris 10 mg/mL): 9.07 mg/mL (≈ 25.8 mM)
solubility at 24 h ([2]; Tris solution, aqueous buffer, thermodynamic from solid, Tris 15 mg/mL): 11.4 mg/mL (≈ 32.4 mM)
solubility at 24 h ([2]; Tris solution, aqueous buffer, thermodynamic from solid, Tris 20 mg/mL): 14.3 mg/mL (≈ 40.6 mM)
solubility at 24 h ([2]; Tris solution, aqueous buffer, thermodynamic from solid, Tris 30 mg/mL): 18.3 mg/mL (≈ 52.1 mM)
stability of the solutions in organic base or basic amino acid ([2]; after standing overnight at room temperature): Crystals were precipitated
solubility at 24 h ([2]; arginine solution, aqueous buffer, thermodynamic from solid, Arginine 7 mg/mL): 11.2 mg/mL (≈ 32 mM)
solubility at 24 h ([2]; arginine solution, aqueous buffer, thermodynamic from solid, Arginine 14 mg/mL): 11.6 mg/mL (≈ 32.9 mM)
solubility at 24 h ([2]; arginine solution, aqueous buffer, thermodynamic from solid, Arginine 20 mg/mL): 11.6 mg/mL (≈ 33 mM)
solubility at 24 h ([2]; arginine solution, aqueous buffer, thermodynamic from solid, Arginine 30 mg/mL): 12.8 mg/mL (≈ 36.4 mM)
solubility at 24 h ([2]; arginine solution, aqueous buffer, thermodynamic from solid, Arginine 40 mg/mL): 14.2 mg/mL (≈ 40.5 mM)
solubility ([2]; high concentration organic base or basic amino acid solution, aqueous buffer, thermodynamic from solid, solubility of meloxicam in a high concentration organic base or basic amino acid, high concentration organic base or basic amino acid): ≥ 10 mg/mL
solubility at 24 h ([2]; lysine solution, aqueous buffer, thermodynamic from solid, Lysine 6 mg/mL): 10.5 mg/mL (≈ 29.7 mM)
solubility at 24 h ([2]; lysine solution, aqueous buffer, thermodynamic from solid, Lysine 19 mg/mL): 29.8 mg/mL (≈ 84.7 mM)
solubility at 24 h ([2]; lysine solution, aqueous buffer, thermodynamic from solid, Lysine 24 mg/mL): 35.9 mg/mL (≈ 102 mM)
solubility at 24 h ([2]; meglumine solution, aqueous buffer, thermodynamic from solid, Meglumine 5 mg/mL): 8.01 mg/mL (≈ 22.8 mM)
solubility at 24 h ([2]; meglumine solution, aqueous buffer, thermodynamic from solid, Meglumine 10 mg/mL): 17.8 mg/mL (≈ 50.7 mM)
solubility at 24 h ([2]; meglumine solution, aqueous buffer, thermodynamic from solid, Meglumine 15 mg/mL): 24.6 mg/mL (≈ 70.1 mM)
solubility [4]: 60 mg/mL (≈ 171 mM)
solubility at 24 h (physchem): 0.02 mg/mL (≈ 0.0569 mM)
Compound: Cc1cnc(NC(=O)C2=C(O)c3ccccc3S(=O)(=O)N2C)s1 [Meloxicam, 4-hydroxy-2-methyl-N-(5-methyl-2-thiazolyl)-2H-1,2-benzothiazine-3-carboxamide-1,1-dioxide]
maximum solubility in pure PEG 400 ([3]; Zaira J. Cárdenas et al.): 9.2 mg/mL
solubility of meloxicam in pure PEG 400 ([3]; found by Neelam Seeder et al.): 3.763 mg/mL
solubility in water ([5]; 25° C.): 0.003414 mg/mL (≈ 0.00972 mM)
solubility in chloroform, acetone and ethanol [5]: slightly soluble
